# Measurements reported in the supplement of paper PMC10883282.
# ± gives the standard deviation of the averaged measurements.
# Experiments:
# Experiment in all cases: relative viability vs DMSO control (72 h) (fraction); higher = more viable cells
# SW872 = tested on: SW872
# Summary of the method: (§1)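 Sarcoma cell lines were seeded in 384-well plates at densities set to reach 80–90% confluence. After 24 h, 2.5 µl of serially diluted compound was added (source plates 10 mM to 0.0002 mM), and plates were held 72 h at 37 °C, 5% CO2, with 0.1% DMSO vehicle and a 5 µM positive control. Relative viability came from ATPLite readings as percent growth, averaged over up to triplicate wells. Data were rescaled so full viability equals 1 and none equals 0.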
# SW684 = tested on: SW684
# Summary of the method: as §1
# SW982 = tested on: SW982
# Summary of the method: as §1
# A204 = tested on: A204
# Summary of the method: as §1
# KHOS-NP = tested on: KHOS-NP
# Summary of the method: as §1
# RD-ES = tested on: RD-ES
# Summary of the method: as §1
# SK-LMS-1 = tested on: SK-LMS-1
# Summary of the method: as §1
# G401 = tested on: G401
# Summary of the method: as §1
# VA-ES-BJ = tested on: VA-ES-BJ
# Summary of the method: as §1
# SK-ES-1 = tested on: SK-ES-1
# Summary of the method: as §1
# HS729 = tested on: HS729
# Summary of the method: as §1
# HT1080 = tested on: HT1080
# Summary of the method: as §1
compound,measurement,setting,value
Cc1c2oc3c(C)ccc(C(=O)N[C@@H]4C(=O)N[C@H](C(C)C)C(=O)N5CCC[C@H]5C(=O)N(C)CC(=O)N(C)[C@@H](C(C)C)C(=O)O[C@@H]4C)c3nc-2c(C(=O)N[C@@H]2C(=O)N[C@H](C(C)C)C(=O)N3CCC[C@H]3C(=O)N(C)CC(=O)N(C)[C@@H](C(C)C)C(=O)O[C@@H]2C)c(N)c1=O [Dactinomycin],relative viability,SW872; 0.00017 µM,0.96 ± 0.066
same,relative viability,SW872; 0.00051 µM,0.975 ± 0.048
same,relative viability,SW872; 0.00152 µM,0.992 ± 0.06
same,relative viability,SW872; 0.00457 µM,0.943 ± 0.072
same,relative viability,SW872; 0.01372 µM,0.765 ± 0.059
same,relative viability,SW872; 0.04115 µM,0.442 ± 0.043
same,relative viability,SW872; 0.1235 µM,0.171 ± 0.022
same,relative viability,SW872; 0.3704 µM,0.218 ± 0.014
same,relative viability,SW872; 1.111 µM,0.189 ± 0.012
same,relative viability,SW872; 3.333 µM,0.187 ± 0.019
same,relative viability,SW872; 10 µM,0.199 ± 0.022
same,relative viability,SW684; 0.00017 µM,1.13 ± 0.1
same,relative viability,SW684; 0.00051 µM,1.16 ± 0.063
same,relative viability,SW684; 0.00152 µM,1.09 ± 0.079
same,relative viability,SW684; 0.00457 µM,0.992 ± 0.063
same,relative viability,SW684; 0.01372 µM,0.835 ± 0.047
same,relative viability,SW684; 0.04115 µM,0.687 ± 0.21
same,relative viability,SW684; 0.1235 µM,0.763 ± 0.082
same,relative viability,SW684; 0.3704 µM,0.775 ± 0.066
same,relative viability,SW684; 1.111 µM,0.795 ± 0.034
same,relative viability,SW684; 3.333 µM,0.816 ± 0.013
same,relative viability,SW684; 10 µM,0.766 ± 0.036
same,relative viability,SW982; 0.00017 µM,1.06 ± 0.03
same,relative viability,SW982; 0.00051 µM,1.02 ± 0.063
same,relative viability,SW982; 0.00152 µM,0.858 ± 0.024
same,relative viability,SW982; 0.00457 µM,0.563 ± 0.0058
same,relative viability,SW982; 0.01372 µM,0.382 ± 0.024
same,relative viability,SW982; 0.04115 µM,0.234 ± 0.021
same,relative viability,SW982; 0.1235 µM,0.15 ± 0.011
same,relative viability,SW982; 0.3704 µM,0.167 ± 0.0057
same,relative viability,SW982; 1.111 µM,0.147 ± 0.0063
same,relative viability,SW982; 3.333 µM,0.142 ± 0.016
same,relative viability,SW982; 10 µM,0.147 ± 0.0064
same,relative viability,A204; 0.00017 µM,1.02 ± 0.083
same,relative viability,A204; 0.00051 µM,0.99 ± 0.068
same,relative viability,A204; 0.00152 µM,0.641 ± 0.066
same,relative viability,A204; 0.00457 µM,0.393 ± 0.02
same,relative viability,A204; 0.01372 µM,0.277 ± 0.037
same,relative viability,A204; 0.04115 µM,0.234 ± 0.039
same,relative viability,A204; 0.1235 µM,0.193 ± 0.034
same,relative viability,A204; 0.3704 µM,0.201 ± 0.016
same,relative viability,A204; 1.111 µM,0.169 ± 0.0066
same,relative viability,A204; 3.333 µM,0.161 ± 0.0081
same,relative viability,A204; 10 µM,0.168 ± 0.011
same,relative viability,KHOS-NP; 0.00017 µM,1.06 ± 0.025
same,relative viability,KHOS-NP; 0.00051 µM,1.07 ± 0.024
same,relative viability,KHOS-NP; 0.00152 µM,1.08 ± 0.022
same,relative viability,KHOS-NP; 0.00457 µM,1.04 ± 0.056
same,relative viability,KHOS-NP; 0.01372 µM,0.63 ± 0.018
same,relative viability,KHOS-NP; 0.04115 µM,0.24 ± 0.033
same,relative viability,KHOS-NP; 0.1235 µM,0.0945 ± 0.0026
same,relative viability,KHOS-NP; 0.3704 µM,0.0744 ± 0.009
same,relative viability,KHOS-NP; 1.111 µM,0.0665 ± 0.0091
same,relative viability,KHOS-NP; 3.333 µM,0.0513 ± 0.009
same,relative viability,KHOS-NP; 10 µM,0.0582 ± 0.0049
same,relative viability,RD-ES; 0.00017 µM,1 ± 0.019
same,relative viability,RD-ES; 0.00051 µM,0.973 ± 0.021
same,relative viability,RD-ES; 0.00152 µM,0.943 ± 0.021
same,relative viability,RD-ES; 0.00457 µM,0.88 ± 0.03
same,relative viability,RD-ES; 0.01372 µM,0.621 ± 0.011
same,relative viability,RD-ES; 0.04115 µM,0.0824 ± 0.0062
same,relative viability,RD-ES; 0.1235 µM,0.00823 ± 0.0017
same,relative viability,RD-ES; 0.3704 µM,-0.00353 ± 0.00035
same,relative viability,RD-ES; 1.111 µM,-0.00503 ± 0.00021
same,relative viability,RD-ES; 3.333 µM,-0.00297 ± 0.00075
same,relative viability,RD-ES; 10 µM,0.00427 ± 0.00047
same,relative viability,SK-LMS-1; 0.00017 µM,1 ± 0.061
same,relative viability,SK-LMS-1; 0.00051 µM,1.02 ± 0.017
same,relative viability,SK-LMS-1; 0.00152 µM,0.994 ± 0.023
same,relative viability,SK-LMS-1; 0.00457 µM,0.86 ± 0.048
same,relative viability,SK-LMS-1; 0.01372 µM,0.664 ± 0.031
same,relative viability,SK-LMS-1; 0.04115 µM,0.364
same,relative viability,SK-LMS-1; 0.1235 µM,0.292 ± 0.018
same,relative viability,SK-LMS-1; 0.3704 µM,0.27 ± 0.02
same,relative viability,SK-LMS-1; 1.111 µM,0.287 ± 0.01
same,relative viability,SK-LMS-1; 3.333 µM,0.288 ± 0.0069
same,relative viability,SK-LMS-1; 10 µM,0.3 ± 0.031
same,relative viability,G401; 0.00017 µM,0.948 ± 0.04
same,relative viability,G401; 0.00051 µM,0.877 ± 0.067
same,relative viability,G401; 0.00152 µM,0.652 ± 0.03
same,relative viability,G401; 0.00457 µM,0.441 ± 0.036
same,relative viability,G401; 0.01372 µM,0.279 ± 0.03
same,relative viability,G401; 0.04115 µM,0.211 ± 0.025
same,relative viability,G401; 0.1235 µM,0.155 ± 0.021
same,relative viability,G401; 0.3704 µM,0.118 ± 0.0033
same,relative viability,G401; 1.111 µM,0.087 ± 0.0056
same,relative viability,G401; 3.333 µM,0.0667 ± 0.0012
same,relative viability,G401; 10 µM,0.0642 ± 0.008
same,relative viability,VA-ES-BJ; 0.00017 µM,1.01 ± 0.06
same,relative viability,VA-ES-BJ; 0.00051 µM,0.994 ± 0.041
same,relative viability,VA-ES-BJ; 0.00152 µM,0.94 ± 0.06
same,relative viability,VA-ES-BJ; 0.00457 µM,0.733 ± 0.026
same,relative viability,VA-ES-BJ; 0.01372 µM,0.457 ± 0.017
same,relative viability,VA-ES-BJ; 0.04115 µM,0.303 ± 0.1
same,relative viability,VA-ES-BJ; 0.1235 µM,0.151 ± 0.009
same,relative viability,VA-ES-BJ; 0.3704 µM,0.158 ± 0.014
same,relative viability,VA-ES-BJ; 1.111 µM,0.148 ± 0.014
same,relative viability,VA-ES-BJ; 3.333 µM,0.15 ± 0.016
same,relative viability,VA-ES-BJ; 10 µM,0.146 ± 0.017
same,relative viability,SK-ES-1; 0.00017 µM,1.03 ± 0.017
same,relative viability,SK-ES-1; 0.00051 µM,0.976 ± 0.02
same,relative viability,SK-ES-1; 0.00152 µM,0.694 ± 0.15
same,relative viability,SK-ES-1; 0.00457 µM,0.423 ± 0.041
same,relative viability,SK-ES-1; 0.01372 µM,0.251 ± 0.022
same,relative viability,SK-ES-1; 0.04115 µM,0.00443 ± 0.0011
same,relative viability,SK-ES-1; 0.1235 µM,-0.00147 ± 0.00023
same,relative viability,SK-ES-1; 0.3704 µM,-0.0034 ± 0.00017
same,relative viability,SK-ES-1; 1.111 µM,-0.0043 ± 0.0001
same,relative viability,SK-ES-1; 3.333 µM,-0.00447 ± 0.00031
same,relative viability,SK-ES-1; 10 µM,0.0007 ± 0.0001
same,relative viability,HS729; 0.00017 µM,0.912 ± 0.014
same,relative viability,HS729; 0.00051 µM,0.937 ± 0.033
same,relative viability,HS729; 0.00152 µM,0.884 ± 0.035
same,relative viability,HS729; 0.00457 µM,0.8961 ± 0.0082
same,relative viability,HS729; 0.01372 µM,0.711 ± 0.21
same,relative viability,HS729; 0.04115 µM,0.128 ± 0.026
same,relative viability,HS729; 0.1235 µM,0.166 ± 0.0025
same,relative viability,HS729; 0.3704 µM,0.119 ± 0.0086
same,relative viability,HS729; 1.111 µM,0.108 ± 0.011
same,relative viability,HS729; 3.333 µM,0.113 ± 0.012
same,relative viability,HS729; 10 µM,0.132 ± 0.011
same,relative viability,HT1080; 0.00017 µM,1.02 ± 0.021
same,relative viability,HT1080; 0.00051 µM,1.04 ± 0.017
same,relative viability,HT1080; 0.00152 µM,0.9913 ± 0.0077
same,relative viability,HT1080; 0.00457 µM,0.712 ± 0.2
same,relative viability,HT1080; 0.01372 µM,0.553 ± 0.2
same,relative viability,HT1080; 0.04115 µM,0.391 ± 0.12
same,relative viability,HT1080; 0.1235 µM,0.185 ± 0.011
same,relative viability,HT1080; 0.3704 µM,0.171 ± 0.0055
same,relative viability,HT1080; 1.111 µM,0.137 ± 0.0066
same,relative viability,HT1080; 3.333 µM,0.128 ± 0.011
same,relative viability,HT1080; 10 µM,0.129 ± 0.003
